The numbers were not newly measured in patent US8912192B2, “Extended release preparation” (Taisho Pharmaceutical Co., Ltd, priority 2010, dated 2014), which cites them from elsewhere.

Counter-ions that a name gives are not always drawn. Like-named read-outs stand apart in the source and are kept apart here.

For data set [1] the following is noted: preparation containing a pharmaceutically acceptable salt of compound A, oral, dogs, fasting state.
For data set [2] the following is noted: pharmaceutically acceptable salt of compound A.
Data set [3] has as its system phosphodiesterase III enzymes. The conditions noted are these: compound A or a pharmaceutically acceptable salt thereof.

For `O=c1[nH]nc(OCCCc2ccc(Cl)cc2)c(NCc2cccnc2)c1Br` [compound A, 4-bromo-6-[3-(4-chlorophenyl)propoxy]-5-(3-pyridylmethylamino)-3(2H)-pyridazinone], in data set [1], the bioavailability result is reported as “about 10%”. Further, for the setting “blood plasma”, the “half-life period in blood plasma” value is given as “about 1.5 hours”. Moreover, the results for the solubility in water entry in data set [2] (around neutral pH range similar to enteric environment) and in data set [2] (pH range of about 4.0 or higher) were “quite poorly soluble” and “decreases its solubility in water”, respectively. The “inhibitory effect against phosphodiesterase III enzymes” value in data set [3] is “has an inhibitory effect against phosphodiesterase III enzymes”.
With `CC(N)C(O)c1ccccc1` (stereo not drawn) [phenylpropanolamine hydrochloride, reference compound], the half-life period (in vivo) was 4 h.
